Earlier results on two compounds are cited in patent publication US12678407B2 (HANMI PHARM. CO., LTD., priority 2020, dated 2026).

The conditions of this data set: according to FDA Clinical Pharmacology Biopharmaceutics Review.

As to `N[C@@H](CC(=O)N1CCn2c(nnc2C(F)(F)F)C1)Cc1cc(F)c(F)cc1F` [sitagliptin, (R)-3-amino-1-(3-(trifluoromethyl)-5,6-dihydro-[1,2,4]triazole[4,3-a]pyrazin-7(8H)-yl)-4-(2,4,5-trifluorophenyl)butan-1-one], the bioavailability is 78%.

For the compound `CCOc1ccc(Cc2cc([C@@H]3O[C@H](CO)[C@@H](O)[C@H](O)[C@H]3O)ccc2Cl)cc1` [dapagliflozin, (2S,3R,4R,5S,6R)-2-[4-chloro-3-(4-ethoxybenzyl)phenyl]-6-(hydroxymethyl)tetrahydro-2H-pyran-3,4,5-triol], the bioavailability is reported as 87%.
